Key:
[1] = Liquid; for mass density: 298.15 K, 101.33 kPa, Vibrating tube method; for vapor or sublimation pressure / Normal boiling temperature: Ebulliometric method (Recirculating still)
[2] = xn = mol fraction of the nth substance listed; conditions: 101.3 kPa, Liquid

CCC(C)O (stereo not given) [butan-2-ol]
[1]
Conditions | Normal boiling temperature [°C] | mass density [kg/m3]
– | 99.19 | 802.4

[1]
Conditions | vapor or sublimation pressure [kPa]
355.98 K | 53.32
358.8 K | 59.98
361.41 K | 66.64
363.82 K | 73.31
366.02 K | 79.97
368.13 K | 86.64
370.09 K | 93.3
370.83 K | 95.97
371.54 K | 98.63
372.34 K | 101.3
373.09 K | 103.97
373.79 K | 106.63
375.46 K | 113.3
377.04 K | 119.96
378.57 K | 126.63
380.02 K | 133.29
381.42 K | 139.95
382.76 K | 146.62
384.06 K | 153.28
385.31 K | 159.95
386.52 K | 166.61
387.69 K | 173.28
388.83 K | 179.94
389.94 K | 186.61
391 K | 193.27
392.05 K | 199.93
393.07 K | 206.6
394.07 K | 213.26
395.06 K | 219.93
396.01 K | 226.59
396.94 K | 233.26
397.86 K | 239.92
398.76 K | 246.59
399.64 K | 253.25
400.48 K | 259.91
401.34 K | 266.58
402.19 K | 273.24
402.98 K | 279.91
403.77 K | 286.57
404.56 K | 293.24
405.32 K | 299.9

CCOC(=O)OCC [diethyl carbonate]
[1]
Conditions | Normal boiling temperature [°C] | mass density [kg/m3]
– | 126.17 | 969.24

CCOC(=O)OCC [diethyl carbonate] + CC1CCCCC1
mass density [kg/m3], [2]
Conditions | 293.15 K | 298.15 K | 303.15 K | 308.15 K | 313.15 K
x1 = 0.0473 | 777.44 | 773.05 | 768.64 | 764.22 | 759.78
x1 = 0.0978 | 786.43 | 781.97 | 777.5 | 773 | 768.48
x1 = 0.1985 | 804.96 | 800.36 | 795.73 | 791.09 | 786.42
x1 = 0.2968 | 823.73 | 818.99 | 814.23 | 809.44 | 804.6
x1 = 0.3924 | 842.56 | 837.7 | 832.8 | 827.88 | 822.9
x1 = 0.4993 | 864.26 | 859.23 | 854.18 | 849.14 | 844.04
x1 = 0.5999 | 885.33 | 880.2 | 875.04 | 869.85 | 864.64
x1 = 0.6985 | 906.48 | 901.24 | 895.95 | 890.65 | 885.31
x1 = 0.7988 | 928.64 | 923.28 | 917.88 | 912.46 | 907.02
x1 = 0.8996 | 951.53 | 946.06 | 940.54 | 935.01 | 929.44
x1 = 0.9509 | 963.41 | 957.86 | 952.29 | 946.7 | 941.08
x1 = 1 | 974.83 | 969.24 | 963.61 | 957.96 | 952.29

Reference: the NIST ThermoML archive (doi:10.1016/j.jct.2004.09.009)
